Experimental data: PubChem BioAssay AID179 (DTP/NCI, 2004)
The source made the active and inactive calls.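 How the source made its calls: active means compounds giving half or more protection of infected cells from virus-caused growth loss, again on retest; inactive means the rest.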

Test system: CEM cells HIV-1 protection, formazan growth assay
Assay: NCI AIDS Antiviral Assay
Details: for IC50: measured here: growth of uninfected CEM cells
Method in brief: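 Steps: treat uninfected and HIV-1-infected human CEM cells at five drug levels; quantify growth by soluble formazan; retest any compound reaching 50% protection; classify actives from the retest.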

Compound	EC50 [µM]	IC50 [µM]	outcome
O=C(OCCOCCO)c1ccccc1-c1c2cc(I)c(=O)c(I)c-2oc2c(I)c(O)c(I)cc12	> 200	5.13	
CCCNC(=O)Cn1c2c(c3ccccc31)CCCC2	> 200	69.2	
CC(=O)N1C(=O)/C(=C\C(=O)c2ccc(Cl)cc2)c2ccccc21	> 100	1.48	
c1ccc2c(CN3CCC(C4CCN(Cc5cccc6ccccc56)CC4)CC3)cccc2c1	> 200	0.933	
COC(=O)CN(CC1O[C@@H]2OC(C)(C)O[C@@H]2C1NC(C)=O)C(=O)OCc1ccccc1 (some centres not stated)	> 200	> 200	
Nc1nc(N)c2nc(-c3ccco3)cnc2n1			inactive
Cc1cc(C(=O)O)c(C)cc1SSc1cc(C)c(C(=O)O)cc1C	> 105	75.9	
CCN(CC)CCOC(=O)c1cc2cc3cc(C(=O)OCCN(CC)CC)c(=O)oc3c(C)c2oc1=O	> 200	> 200	
C=C[C@@]1(O)CCCC2=C(C(=O)OCC)CC[C@]21C			inactive
COc1cc2c(cc1OC)C(=O)Cc1ccc3c(c1CNCC2)OCO3	> 141	> 141	
COc1ccc(/C=C\c2cc(OC)c(OC)c(OC)c2)cc1O	> 214	0.0692	
Cc1cc(=O)[nH]c(NNC(C#N)c2ccccc2O)n1 (configuration not stated)	> 182	0.38	
O=C1C=C2C(=CCOC2O)O1 (configuration not stated)	> 16.2	0.191	
O=C1/C(=C/c2ccccc2Cl)Cc2ccccc21	> 5.37	> 5.37	
Cc1ccc(/C=N/Nc2cnccn2)s1	> 200	> 200	
CCCCCCCCNC(=O)/C(=C\c1ccc(/C=C(/NC(=O)c2ccccc2)C(=O)NCCCCCCCC)cc1)NC(=O)c1ccccc1	> 100	23.4	
COC(=O)[C@H](Cc1ccc(OC(C)(C)C)cc1)N[C@H](C)C(=O)N[C@@H](Cc1ccccc1)C(=O)OCc1ccccc1	> 200	27.5	
CC(NS(=O)(=O)c1ccc(Cl)cc1)C(=O)O (configuration not stated)			inactive
COc1cc(OCc2ccc3nc(-c4ccccc4)c(Cl)nc3c2)cc(OC)c1OC	> 200	> 200	
Cc1ccccc1C1CC(=O)CC(c2ccccc2C)C12C(=O)NC(=O)NC2=O (configuration not stated)	> 200	105	
O=Cc1[nH]c(=O)[nH]c(=O)c1CCl	> 200	35.5	

Compound	EC50 [µM]	IC50 [µM]	outcome
COc1ccc(CN2COc3c(cc(Cl)c4cccnc34)C2)cc1	> 200	1.55	
O=C1Oc2ccccc2C(=O)/C1=C/N1C(=O)N/C(=C\c2ccccc2O)C1=O	> 200	123	
CC(=O)N(CC(=O)C(=O)NNc1ccoc1)c1ccc(Cl)cc1	> 200	> 200	
CC(C)(C)c1ccc(O)c(C(O)c2ccccn2)c1 (configuration not stated)	> 200	81.3	
COc1cc(C2SCC(=O)N2c2ccc(-n3c(-c4ccccc4)nc4ccccc4c3=O)cc2)ccc1O (configuration not stated)	> 200	102	
S=C(Nc1ccc2c3c(cccc13)CC2)Nc1ccc2c3c(cccc13)CC2	> 200	42.7	
CCN1C[C@]2(COC)CCC(O)C34[C@@H]5C[C@@H]6C(O)[C@@H]5[C@](O)(C[C@@H]6OC)[C@@H](C(OC)[C@@H]32)[C@H]14 (some centres not stated)			inactive
CC(C)(O)[C@@H]1CC[C@@]2(C)CCC[C@H](O)[C@H]2C1			inactive
CCCCNc1nc(N)nc(Nc2ccc(Br)cc2)c1N=O	> 55	23.4	
CN(c1ccc(Cl)cc1)S(=O)(=O)c1ccccc1	> 200	50.1	
COC(=O)c1ncn(Cc2ccccc2)c1N	> 200	> 100	
CN1CCCC2[C@@H]3CCC4=C(O)C(=O)CC[C@]4(C)C3CC[C@@]21C (some centres not stated)	> 74.1	> 74.1	
O=C1C(=O)N(C2C3CC4CC(C3)CC2C4)C(=O)C(=O)C1c1nc2ccccc2o1 (configuration not stated)	> 91.2	52.5	
CC1c2cc(c3c(c2O)CN([C@@H](C)C2CCCCC2)CO3)C(C)c2cc(c3c(c2O)CN([C@@H](C)C2CCCCC2)CO3)C(C)c2cc(c3c(c2O)CN([C@@H](C)C2CCCCC2)CO3)C(C)c2cc1c1c(c2O)CN([C@@H](C)C2CCCCC2)CO1 (some centres not stated)	> 100	1.74	
CC(NNC(=O)c1ccncc1)c1ccc(Cl)cc1Cl (configuration not stated)	> 200	132	
O=C1c2ccoc2C(=O)c2oc(=O)ccc21	> 102	5.75	
C/C1=C/C(O)C/C(C)=C\C(O)C(=O)/C=C/C2C(CC1)C2(C)C (configuration not stated)	> 200	> 200	
CC1=NN(C(=O)CC(=O)Nc2cccc(C)c2)C(=O)C1N=Nc1ccc(C(=O)O)cc1 (configuration not stated)	> 200	28.2	
COc1ccc2c(c1)C1=C(CC2)C(=O)OC1=O			inactive
COc1cc2c(cc1OC)CC(=O)Nc1cc(OC)c(OC)cc1CC2			inactive
O=C(CCc1ccc(O)cc1)NCCc1cccc(OCc2ccccc2)c1	> 200	26.3	
